Measurements as given in PMC4072508, “Genome-Wide Prediction and Validation of Peptides That Bind Human Prosurvival Bcl-2 Proteins” (PLoS Computational Biology, 2014).
Values joined by “and” are separate entries in the source; they are usually repeats but may differ in a detail not shown here. Equal entries are not always repeated. Where two headings read alike, the source gives them in different places. No end group written: not given here.

Tests used:
Bcl-2 = target: T1, Bcl-2 (Homo sapiens, UniProt P10415, DEL53-91); test: Fluorescence polarization direct binding
T1 construct: myc- Bcl-2 FP; made in house
T1 sequence (P10415 with tags, fused parts or gaps DEL53-91): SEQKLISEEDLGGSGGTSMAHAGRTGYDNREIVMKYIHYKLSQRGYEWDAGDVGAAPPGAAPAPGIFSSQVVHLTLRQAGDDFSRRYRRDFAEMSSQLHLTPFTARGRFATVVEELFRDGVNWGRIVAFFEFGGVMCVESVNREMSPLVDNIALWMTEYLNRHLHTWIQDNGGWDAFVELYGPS
Procedure: (§1) Peptides were purified by reverse-phase HPLC using a C18 column and a linear water/acetonitrile gradient. We re-analyzed the purified peptide by mass spectrometry if there was not a single well-defined peak in HPLC chromatogram.
(§2) Fluorescence polarization (FP) assays were done at 25°C in assay buffer (20 mM NaPO4, 50 mM NaCl, 1 mM EDTA, 0.001% Triton X (v/v), pH 7.8). […] For all FP experiments, the total well volume was 120 µl. […] Anisotropy was measured using a Spectramax M5 plate reader from Molecular Devices.
(§3) Direct binding curves were fit using Pylab/Scipy/Optimize to a single-site binding model utilized previously.
(§4) ^1Best-fit KD values determined by combining all replicate titration curves and fitting to a direct binding model (see Methods). […] Values with an X followed by a number indicate the highest concentration (the number, in nM) for which signal was measured yet no binding was detected.

Bcl-w = target: T2, Bcl-w (Homo sapiens, UniProt Q92843, Q133R); test: Fluorescence polarization direct binding
T2 construct: myc-Bcl-w SPOT array & FP; made in house
T2 sequence (Q92843 with tags, fused parts or gaps Q133R): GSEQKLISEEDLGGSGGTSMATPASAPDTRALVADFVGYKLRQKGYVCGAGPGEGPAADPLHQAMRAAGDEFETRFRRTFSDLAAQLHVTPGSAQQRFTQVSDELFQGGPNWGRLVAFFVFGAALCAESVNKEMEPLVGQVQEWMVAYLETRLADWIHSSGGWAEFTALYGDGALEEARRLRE
Procedure: as §1, §2, §3, §4

Bcl-xL [1] = target: T3, Bcl-xL (Homo sapiens, UniProt Q07817); test: Fluorescence polarization direct binding
T3 construct: myc-Bcl-xL SPOT array & FP; made in house
T3 sequence (Q07817 with tags, fused parts or gaps): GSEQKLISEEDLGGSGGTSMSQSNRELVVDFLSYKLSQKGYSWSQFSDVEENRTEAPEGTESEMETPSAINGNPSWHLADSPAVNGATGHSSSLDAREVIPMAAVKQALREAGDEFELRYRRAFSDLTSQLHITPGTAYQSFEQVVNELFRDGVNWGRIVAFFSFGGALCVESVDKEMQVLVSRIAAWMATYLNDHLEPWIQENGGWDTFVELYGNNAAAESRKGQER
Procedure: as §1, §2, §3, §4

Bfl-1 = target: T4, Bfl-1 (Homo sapiens, UniProt Q16548); test: Fluorescence polarization direct binding
T4 construct: myc- Bfl-1 SPOT array & FP; made in house
T4 sequence (Q16548 with tags, fused parts or gaps): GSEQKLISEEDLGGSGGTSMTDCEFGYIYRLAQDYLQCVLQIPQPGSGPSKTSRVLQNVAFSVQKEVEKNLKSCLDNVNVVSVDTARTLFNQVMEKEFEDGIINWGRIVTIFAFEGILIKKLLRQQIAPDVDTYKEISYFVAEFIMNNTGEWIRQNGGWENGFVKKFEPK
Procedure: as §1, §2, §3, §4

Mcl-1 [2] = target: T5, Mcl-1 (Homo sapiens, UniProt Q07820); test: Fluorescence polarization direct binding
T5 construct: myc-Mcl-1 SPOT array & FP; made in house
T5 sequence (Q07820 with tags, fused parts or gaps): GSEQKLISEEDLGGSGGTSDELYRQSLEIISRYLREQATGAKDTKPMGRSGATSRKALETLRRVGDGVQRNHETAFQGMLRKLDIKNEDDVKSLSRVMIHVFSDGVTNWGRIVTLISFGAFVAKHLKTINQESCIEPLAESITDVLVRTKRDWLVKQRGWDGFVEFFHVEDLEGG
Procedure: as §1, §2, §3, §4

Bcl-xL [3] = target: T3, Bcl-xL; conditions: S1 Bim variants, specific binding measured using yeast display; ref Dutta et al. (2010); cited from earlier work
Mcl-1 [4] = target: T5, Mcl-1; conditions: read-out: Binder class, Mcl-1; S1 Bim variants, specific binding measured using yeast display; ref Dutta et al. (2010); cited from earlier work
Source text: Negative control mutatio ...

[5] = FP direct binding, 10 nM FAM-labeled peptide, receptor titrated, 25°C, pH 7.8, fit of all replicate titrations, X+number in a cell = highest concentration (nM) measured with no binding detected, given here as >, SPNS1 fit to raw fluorescence, read-out: Best-fit KD, Bcl-2
[6] = benchmark classification of peptides newly characterized in this study, read-out: Binder class, Bcl-2
[7] = FP direct binding, 10 nM FAM-labeled peptide, receptor titrated, 25°C, pH 7.8, fit of all replicate titrations, X+number in a cell = highest concentration (nM) measured with no binding detected, given here as >, SPNS1 fit to raw fluorescence, read-out: Best-fit KD, Bcl-w
[8] = benchmark classification of peptides newly characterized in this study, read-out: Binder class, Bcl-w
[9] = FP direct binding, 10 nM FAM-labeled peptide, receptor titrated, 25°C, pH 7.8, fit of all replicate titrations, X+number in a cell = highest concentration (nM) measured with no binding detected, given here as >, SPNS1 fit to raw fluorescence, read-out: Best-fit KD, Bcl-xL
[10] = benchmark classification of peptides newly characterized in this study, read-out: Binder class, Bcl-xL
[11] = FP direct binding, 10 nM FAM-labeled peptide, receptor titrated, 25°C, pH 7.8, fit of all replicate titrations, X+number in a cell = highest concentration (nM) measured with no binding detected, given here as >, SPNS1 fit to raw fluorescence, read-out: Best-fit KD, Bfl-1
[12] = benchmark classification of peptides newly characterized in this study, read-out: Binder class, Bfl-1
[13] = Binder class, Mcl-1, benchmark classification of peptides newly characterized in this study
[14] = FP direct binding, 10 nM FAM-labeled peptide, receptor titrated, 25°C, pH 7.8, fit of all replicate titrations, X+number in a cell = highest concentration (nM) measured with no binding detected, given here as >, SPNS1 fit to raw fluorescence

Row | Kd (Bcl-2; [5]) | Kd (Bcl-2; [6]) [nM] | Kd (Bcl-w; [7]) | Kd (Bcl-w; [8]) [nM] | Kd (Bcl-xL [1]; [9]) | Kd (Bcl-xL [1]; [10]) [nM] | Kd (Bfl-1; [11]) | Kd (Bfl-1; [12]) [nM] | Kd (Mcl-1 [2]; [13]) [nM] | Kd (Mcl-1 [2]; [14]) | Substance | Binder class (Kd bin) (Bcl-xL [3]) [nM] | Kd (Mcl-1 [4]) [nM] | other results
1 | < 30 nM and 14 nM | < 1000 | < 30 nM and 5 nM | < 1000 | < 30 nM and 8 nM | < 1000 | < 30 nM and 1 nM | < 1000 | < 1000 | < 30 nM and 0.9 nM | IIHKLAMQLRHIGDNIDHRMVRE-NH2 [PXT1] |  |  | 
2 | 130 nM | < 1000 | 85 nM | < 1000 | 103 nM | < 1000 | > 3370 nM | > 10000 | > 10000 | > 10000 nM | KKMTLSEIYRWIADNFPYYKNAG-NH2 [FOXJ2] |  |  | Best-fit KD, Bcl-2 (Bcl-2; [14]): bound tightly; Best-fit KD, Bcl-w (Bcl-w; [14]): bound tightly; Best-fit KD, Bcl-xL (Bcl-xL [1]; [14]): bound tightly
3 | > 3050 nM | < 1000 | > 4350 nM | 1000 to 10000 | > 4000 nM | > 10000 | > 3370 nM | > 10000 | < 1000 | 142 nM | KREKLVEILRNIGDERTMVFVET-NH2 [DDX4] |  |  | Best-fit KD, Mcl-1 (Mcl-1 [2]; [14]): bound tightly
4 | 3290 nM | 1000 to 10000 | 5380 nM | 1000 to 10000 | > 6900 nM | > 10000 | > 3290 nM | > 10000 | > 10000 | > 4000 nM | LMARPAVALHFQSIADGFKEAVRYVL-NH2 [SOS2] |  |  | 
5 | 16 nM | < 1000 | 29 nM | < 1000 | 10 nM | < 1000 | 3270 nM | 1000 to 10000 | 1000 to 10000 | 3810 nM | LRLFLAQRLRWLADSAPASRATA-NH2 [NBEAL2] |  |  | Best-fit KD, Bcl-2 (Bcl-2; [14]): bound tightly; Best-fit KD, Bcl-w (Bcl-w; [14]): bound tightly; Best-fit KD, Bcl-xL (Bcl-xL [1]; [14]): bound tightly
6 | > 100000 nM | 1000 to 10000 | 5870 nM | 1000 to 10000 | > 4000 nM | > 10000 | > 4670 nM | > 10000 | > 10000 | > 5030 nM | LSDGLPVHLANIADELTQKKKMF-NH2 [AGBL2] |  |  | 
7 |  |  |  |  |  |  |  |  |  |  | PEIWVAQEIERIGNEVNAYYARR | > 10000 | < 1000 | 
8 |  |  |  |  |  |  |  |  |  |  | PEIWVAQEIGRIGDETNAYYARR | > 10000 | < 1000 | 
9 |  |  |  |  |  |  |  |  |  |  | PEIWVAQEIGRIGNEINAYYARR | > 10000 | < 1000 | 
10 |  |  |  |  |  |  |  |  |  |  | PEIWVAQEINRIGEEINAYYARR | > 10000 | < 1000 | 
11 |  |  |  |  |  |  |  |  |  |  | PEIWVAQEINRVGDEVNAYYARR | > 10000 | < 1000 | 
12 |  |  |  |  |  |  |  |  |  |  | PEIWVAQEIRRVGDENNAYYARR | > 10000 | < 1000 | 
13 |  |  |  |  |  |  |  |  |  |  | PEIWVAQELERIGEEVNAYYARR | > 10000 | < 1000 | 
14 |  |  |  |  |  |  |  |  |  |  | PEIWVAQELGRDGDEFNAYYARR | < 1000 | > 10000 | 
15 |  |  |  |  |  |  |  |  |  |  | PEIWVAQELGRNGDEYNAYYARR | < 1000 | > 10000 | 
16 |  |  |  |  |  |  |  |  |  |  | PEIWVAQELGRTGDEVNAYYARR | > 10000 | < 1000 | 
17 |  |  |  |  |  |  |  |  |  |  | PEIWVAQELKRAGEEFNAYYARR | < 1000 | > 10000 | 
18 |  |  |  |  |  |  |  |  |  |  | PEIWVAQELKRNGDEFNAYYARR | < 1000 | > 10000 | 
